Measurements published in ChEMBL document CHEMBL5096235, “In Silico Exploration and Biological Evaluation of Bispecific Peptides Derived from Anti-HER2 Antibodies and Peptide-Camptothecin Conjugates for HER2-Positive Breast Cancer” (J Med Chem, 2022).
Calls of active or inactive are those of the source. The rule behind the calls is not given here. Residues, ends and D or L forms follow the SMILES beside them.

How the values were obtained:
[1] = Drug uptake in tumor of nude mouse xenografted with HER2-positive human SK-BR-3 cells assessed as increase in fluorescence intensity at 25 uM, iv measured after 2 hrs by IVIS spectrum in vivo imaging analysis; format: ADME, organism-based, Neoplasm
[2] = target: T1, Receptor tyrosine-protein kinase erbB-2 (Homo sapiens, UniProt P04626); assay: Binding affinity to recombinant HER2 (unknown origin) assessed as dissociation constant by SPR analysis
[3] = Metabolic stability in Sprague-Dawley rat plasma assessed as drug degradation incubated for 120 mins by LC-MS/MS analysis; format: ADME, cell-free; conditions: 2 h
[4] = Metabolic stability in Sprague-Dawley rat plasma assessed as half life incubated for 120 mins by LC-MS/MS analysis; format: ADME, cell-free
[5] = target: T1, Receptor tyrosine-protein kinase erbB-2; assay: Binding affinity to HER2 in HER-positive human SK-BR-3 cells assessed as increase in fluorescence intensity at 25 uM by Hoechst 33342 staining based confocal microscopic analysis; format: cell-based
[6] = Toxicity in nude mouse xenografted with human SK-BR-3 cells assessed as spleen damage at 8 micromol/kg, iv administered every 3 days for 14 days by H and E staining based analysis; format: organism-based; conditions: in vivo, 336 h, dose 8 µmol/kg, time 14 day
[7] = Toxicity in nude mouse xenografted with human SK-BR-3 cells assessed as effect on globulin level at 8 micromol/kg, iv administered every 3 days for 14 days; format: organism-based; conditions: in vivo, 336 h, dose 8 µmol/kg, time 14 day
[8] = system: SK-BR-3; assay: Cytotoxicity against HER-positive human SK-BR-3 cells assessed as inhibition of cell growth incubated for 48 hrs by MTT assay; format: functional, cell-based; conditions: SK-BR-3, 48 h
[9] = Cytotoxicity against human MCF-10A cells assessed as inhibition of cell growth incubated for 48 hrs by MTT assay; format: toxicity, cell-based
[10] = Toxicity in nude mouse xenografted with human SK-BR-3 cells assessed as effect on creatinine level at 8 micromol/kg, iv administered every 3 days for 14 days; format: organism-based; conditions: in vivo, 336 h, dose 8 µmol/kg, time 14 day
[11] = system: SK-BR-3; assay: Induction of apoptosis in human SK-BR-3 cells assessed as early apoptotic cells incubated for 24 hrs by Annexin V-FITC/PI staining based flow cytometry analysis (Rvb= 4.37%); format: functional
[12] = Toxicity in nude mouse xenografted with human SK-BR-3 cells assessed as effect on albumin level at 8 micromol/kg, iv administered every 3 days for 14 days; format: organism-based; conditions: in vivo, 336 h, dose 8 µmol/kg, time 14 day
[13] = Toxicity in nude mouse xenografted with human SK-BR-3 cells assessed as effect on total protein level at 8 micromol/kg, iv administered every 3 days for 14 days; format: organism-based; conditions: in vivo, 336 h, dose 8 µmol/kg, time 14 day
[14] = system: SK-OV-3; assay: Cytotoxicity against HER-positive human SK-OV-3 cells assessed as inhibition of cell growth incubated for 48 hrs by MTT assay; format: functional, cell-based; conditions: SK-OV-3, 48 h
[15] = system: NCI-N87; assay: Cytotoxicity against HER-positive human NCI-N87 cells assessed as inhibition of cell growth incubated for 48 hrs by MTT assay; format: functional, cell-based; conditions: NCI-N87, 48 h
[16] = system: SK-BR-3; assay: Induction of apoptosis in human SK-BR-3 cells assessed as dead cells incubated for 24 hrs by Annexin V-FITC/PI staining based flow cytometry analysis (Rvb= 1.21%); format: functional
[17] = system: SK-BR-3; assay: Induction of apoptosis in human SK-BR-3 cells assessed as late apoptotic cells incubated for 24 hrs by Annexin V-FITC/PI staining based flow cytometry analysis (Rvb= 5.02%); format: functional
[18] = Toxicity in nude mouse xenografted with human SK-BR-3 cells assessed as inflammatory cell infiltration at 8 micromol/kg, iv administered every 3 days for 14 days by H and E staining based analysis; format: organism-based; conditions: in vivo, 336 h, dose 8 µmol/kg, time 14 day
[19] = system: SK-BR-3; assay: Induction of cell cycle arrest in human SK-BR-3 cells assessed as accumulation of cells at S phase incubated for 24 hrs by flow cytometry analysis (reference value: 23%); format: functional
[20] = Toxicity in nude mouse xenografted with human SK-BR-3 cells assessed as liver damage at 8 micromol/kg, iv administered every 3 days for 14 days by H and E staining based analysis; format: organism-based; conditions: in vivo, 336 h, dose 8 µmol/kg, time 14 day
[21] = Toxicity in nude mouse xenografted with human SK-BR-3 cells assessed as cellular necrosis at 8 micromol/kg, iv administered every 3 days for 14 days by H and E staining based analysis; format: organism-based; conditions: in vivo, 336 h, dose 8 µmol/kg, time 14 day
[22] = system: SK-BR-3; assay: Induction of apoptosis in human SK-BR-3 cells assessed as live cells incubated for 24 hrs by Annexin V-FITC/PI staining based flow cytometry analysis (Rvb= 89.4%); format: functional
[23] = system: MDA-MB-231; assay: Cytotoxicity against HER-negative human MDA-MB-231 cells assessed as inhibition of cell growth incubated for 48 hrs by MTT assay; format: functional, cell-based; conditions: MDA-MB-231, 48 h
[24] = Toxicity in nude mouse xenografted with human SK-BR-3 cells assessed as heart damage at 8 micromol/kg, iv administered every 3 days for 14 days by H and E staining based analysis; format: organism-based; conditions: in vivo, 336 h, dose 8 µmol/kg, time 14 day
[25] = Toxicity in nude mouse xenografted with human SK-BR-3 cells assessed as kidney damage at 8 micromol/kg, iv administered every 3 days for 14 days by H and E staining based analysis; format: organism-based; conditions: in vivo, 336 h, dose 8 µmol/kg, time 14 day
[26] = Toxicity in nude mouse xenografted with human SK-BR-3 cells assessed as lung damage at 8 micromol/kg, iv administered every 3 days for 14 days by H and E staining based analysis; format: organism-based; conditions: in vivo, 336 h, dose 8 µmol/kg, time 14 day
[27] = Toxicity in nude mouse xenografted with human SK-BR-3 cells assessed as effect on alkaline phosphatase level at 8 micromol/kg, iv administered every 3 days for 14 days; format: organism-based; conditions: in vivo, 336 h, dose 8 µmol/kg, time 14 day

T1 sequence (P04626 whole entry): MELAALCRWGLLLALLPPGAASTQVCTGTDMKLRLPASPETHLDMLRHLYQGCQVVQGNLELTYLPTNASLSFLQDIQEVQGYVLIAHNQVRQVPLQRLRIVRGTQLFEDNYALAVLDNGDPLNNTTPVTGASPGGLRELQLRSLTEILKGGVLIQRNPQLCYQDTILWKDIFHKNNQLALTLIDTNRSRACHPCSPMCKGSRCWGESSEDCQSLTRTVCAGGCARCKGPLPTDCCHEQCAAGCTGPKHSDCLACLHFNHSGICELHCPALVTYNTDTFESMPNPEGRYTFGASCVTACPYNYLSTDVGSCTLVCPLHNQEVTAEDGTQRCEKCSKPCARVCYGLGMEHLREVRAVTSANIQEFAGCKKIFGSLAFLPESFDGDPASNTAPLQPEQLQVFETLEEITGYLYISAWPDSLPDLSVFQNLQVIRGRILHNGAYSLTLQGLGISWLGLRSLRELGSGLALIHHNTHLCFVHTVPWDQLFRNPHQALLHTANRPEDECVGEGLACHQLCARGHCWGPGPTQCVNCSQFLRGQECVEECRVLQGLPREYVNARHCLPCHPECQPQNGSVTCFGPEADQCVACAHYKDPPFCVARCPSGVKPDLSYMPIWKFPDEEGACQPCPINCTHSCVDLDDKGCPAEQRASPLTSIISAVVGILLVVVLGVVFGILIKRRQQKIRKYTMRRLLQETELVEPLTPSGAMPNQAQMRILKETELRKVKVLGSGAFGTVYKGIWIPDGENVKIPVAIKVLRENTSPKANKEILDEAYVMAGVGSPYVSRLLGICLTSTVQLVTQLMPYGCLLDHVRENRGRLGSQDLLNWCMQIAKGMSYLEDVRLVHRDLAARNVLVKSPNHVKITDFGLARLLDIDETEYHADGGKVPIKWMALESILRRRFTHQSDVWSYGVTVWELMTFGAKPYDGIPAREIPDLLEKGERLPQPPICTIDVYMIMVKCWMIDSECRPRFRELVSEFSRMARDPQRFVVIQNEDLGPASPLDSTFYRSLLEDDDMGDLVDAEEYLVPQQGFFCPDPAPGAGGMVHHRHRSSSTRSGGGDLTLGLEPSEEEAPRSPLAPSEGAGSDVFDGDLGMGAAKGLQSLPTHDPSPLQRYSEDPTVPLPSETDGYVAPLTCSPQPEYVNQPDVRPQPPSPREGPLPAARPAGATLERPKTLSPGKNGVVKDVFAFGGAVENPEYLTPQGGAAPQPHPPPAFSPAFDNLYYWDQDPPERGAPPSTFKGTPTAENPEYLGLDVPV

In the case of `CC[C@H](C)[C@H](NC(=O)[C@H](CCCNC(=N)N)NC(=O)CNC(=O)[C@H](CS)NC(=O)CNC(=O)[C@H](CCCCN)NC(=O)[C@H](Cc1ccccc1)NC(=O)[C@H](CCCNC(=N)N)NC(=O)[C@H](CCC(N)=O)NC(=O)[C@H](CC(N)=O)NC(=O)[C@H](Cc1ccc(O)cc1)NC(=O)[C@H](Cc1c[nH]c2ccccc12)NC(=O)[C@H](CO)NC(=O)[C@H](CCCNC(=N)N)NC(=O)CNC(=O)[C@H](Cc1c[nH]c2ccccc12)NC(=O)[C@H](CC(N)=O)NC(=O)[C@@H]1CCCN1C(=O)[C@@H](N)CC(=O)NC(=S)Nc1ccc2c(c1)C(=O)OC21c2ccc(O)cc2Oc2cc(O)ccc21)C(=O)N[C@@H](CCCCN)C(=O)N1CCC[C@H]1C(=O)N[C@@H](CCCNC(=N)N)C(=O)N[C@@H](CCCCN)C(=O)NCC(=O)N[C@@H](Cc1ccc(O)cc1)C(=O)N[C@H](C(=O)N[C@@H](CCCNC(=N)N)C(N)=O)[C@@H](C)O`, the Drug uptake [1] is reported as “Active”.
With `CC[C@H](C)[C@H](NC(=O)[C@H](CCCNC(=N)N)NC(=O)CNC(=O)[C@H](CS)NC(=O)CNC(=O)[C@H](CCCCN)NC(=O)[C@H](Cc1ccccc1)NC(=O)[C@H](CCCNC(=N)N)NC(=O)[C@H](CCC(N)=O)NC(=O)[C@H](CC(N)=O)NC(=O)[C@H](Cc1ccc(O)cc1)NC(=O)[C@H](Cc1c[nH]c2ccccc12)NC(=O)[C@H](CO)NC(=O)[C@H](CCCNC(=N)N)NC(=O)CNC(=O)[C@H](Cc1c[nH]c2ccccc12)NC(=O)[C@H](CC(N)=O)NC(=O)[C@@H]1CCCN1C(=O)[C@@H](N)CC(N)=O)C(=O)N[C@@H](CCCCN)C(=O)N1CCC[C@H]1C(=O)N[C@@H](CCCNC(=N)N)C(=O)N[C@@H](CCCCN)C(=O)NCC(=O)N[C@@H](Cc1ccc(O)cc1)C(=O)N[C@H](C(=O)N[C@@H](CCCNC(=N)N)C(=O)O)[C@@H](C)O` (H-NPNWGRSWYNQRFKGCGRIKPRKGYTR-OH) the Kd [2] was 0.151 µM, the Stability [3] was “Unstable” and the half-life [4] was 15 min.
For `CC[C@H](C)[C@H](NC(=O)[C@H](CCCNC(=N)N)NC(=O)CNC(=O)[C@H](CS)NC(=O)CNC(=O)[C@H](CCCCN)NC(=O)[C@H](Cc1ccccc1)NC(=O)[C@H](CCCNC(=N)N)NC(=O)[C@H](CCC(N)=O)NC(=O)[C@H](CC(N)=O)NC(=O)[C@H](Cc1ccc(O)cc1)NC(=O)[C@H](Cc1c[nH]c2ccccc12)NC(=O)[C@H](CO)NC(=O)[C@H](CCCNC(=N)N)NC(=O)CNC(=O)[C@H](Cc1c[nH]c2ccccc12)NC(=O)[C@H](CC(N)=O)NC(=O)[C@@H]1CCCN1C(=O)[C@@H](N)CC(=O)NC(=S)Nc1ccc2c(c1)C(=O)OC21c2ccc(O)cc2Oc2cc(O)ccc21)C(=O)N[C@@H](CCCCN)C(=O)N1CCC[C@H]1C(=O)N[C@@H](CCCNC(=N)N)C(=O)N[C@@H](CCCCN)C(=O)NCC(=O)N[C@@H](Cc1ccc(O)cc1)C(=O)N[C@H](C(=O)N[C@@H](CCCNC(=N)N)C(=O)O)[C@@H](C)O` (HELM PEPTIDE1{D.P.N.W.G.R.S.W.Y.N.Q.R.F.K.G.C.G.R.I.K.P.R.K.G.Y.T.R}|CHEM1{[O=C1OC2(c3ccc(O)cc3Oc3cc(O)ccc32)c2ccc(NC(=S)N[*:1])cc21]}$PEPTIDE1,CHEM1,1:R3-1:R1$$$V2.0), the Activity [5] was “Active” and the Drug uptake [1] was “Active”.
For `CC[C@@]1(O)C(=O)OCc2c1cc1n(c2=O)Cc2cc3ccccc3nc2-1` [CAMPTOTHECIN], the Activity [6] was “Non-Toxic”, the Activity [7] was “Non-Toxic” and the IC50 [8] was 0.21 µM. The IC50 at 48 h [9] was 2.58 µM, the Activity [10] was “Non-Toxic” and the Activity [11] was 38.6%. The Activity [12] was “Non-Toxic”, the Activity [13] was “Non-Toxic” and the IC50 [14] was 3.82 µM. It also gave an IC50 [15] of 2.32 µM, an Activity [16] of 0.35% and an Activity [17] of 12.3%. The Activity [18] was “Non-Toxic”, the Activity [19] was 50.8% and the Activity [20] was “Non-Toxic”. For the same compound, the Activity [21] was “Non-Toxic”, the Activity [22] was 48.8% and the IC50 [23] was 1.06 µM. For the same compound, the Activity [24] was “Non-Toxic”, the Activity [25] was “Non-Toxic” and the Activity [26] was “Non-Toxic”. For the same compound, the Activity [27] was “Non-Toxic”.
